Experimental data as given in patent US20240228547A1, “POLYPEPTIDE FOR RESISTING NOVEL CORONAVIRUS AND APPLICATION THEREOF” (INSTITUTE OF MICROBIOLOGY, CHINESE ACADEMY OF SCIENCES, priority 2021, published 2024).

Columns and labels:
[1] = tested on: SARS-COV-2 original strain and its various variants; type: cell-based
[2] = tested on: pseudovirus of SARS-CoV-2 variant D614G; settings: for IC50: pseudovirus of variant D614G
[3] = tested on: pseudovirus of SARS-CoV-2 variant Alpha (B.1.1.7); settings: B.1.1.7 (Alpha) pseudovirus; for IC50: read-out: IC50, inhibitory effect on pseudovirus, Hela hACE2 cells
[4] = tested on: pseudovirus of SARS-CoV-2 variant Beta (B.1.351); settings: B.1.351 (Beta) pseudovirus; for IC50: read-out: IC50, inhibitory effect on pseudovirus, Hela hACE2 cells
[5] = tested on: pseudovirus of SARS-CoV-2 variant Gamma (P.1); settings: P.1 (Gamma) pseudovirus; for IC50: read-out: IC50, inhibitory effect on pseudovirus, Hela hACE2 cells
[6] = tested on: pseudovirus of SARS-CoV-2 variant Kappa (B.1.617.1); settings: for Increase multiple (fold increase in the inhibitory effect compared to the polypeptide P3) / IC50: B.1.617.1 (Kappa) pseudovirus; for IC50: read-out: IC50, inhibitory effect on pseudovirus, Hela hACE2 cells
[7] = tested on: pseudovirus of SARS-CoV-2 variant Delta (B.1.617.2); settings: B.1.617.2 (Delta) pseudovirus; for IC50: read-out: IC50, inhibitory effect on pseudovirus, Hela hACE2 cells

| SMILES | inhibitory effect compared with the polypeptide P3 (in words) [1] | Increase multiple (fold increase in the inhibitory effect compared to the polypeptide P3) [2] | IC50 [2] | Increase multiple (fold increase in the inhibitory effect compared to the polypeptide P3) [3] | IC50 [3] | Increase multiple (fold increase in the inhibitory effect compared to the polypeptide P3) [4] | IC50 [4] | Increase multiple (fold increase in the inhibitory effect compared to the polypeptide P3) [5] | IC50 [5] | Increase multiple (fold increase in the inhibitory effect compared to the polypeptide P3) [6] | IC50 [6] | Increase multiple (fold increase in the inhibitory effect compared to the polypeptide P3) [7] | IC50 [7] | inhibitory effect on the Kappa variant strain compared with P3 (in words) ([6]; Kappa variant strain) |
| --- | --- | --- | --- | --- | --- | --- | --- | --- | --- | --- | --- | --- | --- | --- |
| CC[C@H](C)[C@H](NC(=O)CNC(=O)[C@H](CO)NC(=O)[C@@H](NC(=O)[C@H](CC(=O)O)NC(=O)CNC(=O)[C@H](Cc1ccccc1)NC(=O)[C@H](CCCCN)NC(=O)[C@@H](N)C(C)C)[C@@H](C)CC)C(=O)N[C@@H](CC(N)=O)C(=O)N[C@@H](C)C(=O)N[C@@H](CO)C(=O)N[C@H](C(=O)N[C@H](C(=O)N[C@@H](CC(N)=O)C(=O)N[C@H](C(=O)N[C@@H](CCCCN)C(=O)N[C@@H](CCC(=O)O)C(=O)N[C@@H](CCC(=O)O)C(=O)N[C@H](C(=O)N[C@@H](CC(=O)O)C(=O)N[C@@H](CCCNC(=N)N)C(=O)N[C@@H](CC(C)C)C(=O)N[C@@H](Cc1ccc(O)cc1)C(=O)N[C@@H](CCC(=O)O)C(=O)N[C@H](C(=O)N[C@H](C(=O)N[C@@H](CCCCN)C(=O)N[C@@H](CC(N)=O)C(=O)N[C@@H](CC(C)C)C(=O)N[C@@H](CC(N)=O)C(=O)N[C@@H](CCC(=O)O)C(=O)N[C@@H](CO)C(=O)N[C@@H](CC(C)C)C(=O)N[C@H](C(=O)N[C@@H](CC(=O)O)C(=O)N[C@@H](CC(C)C)C(=O)N[C@@H](CCC(N)=O)C(=O)N[C@@H](CCC(=O)O)C(=O)N[C@@H](CC(C)C)C(=O)O)[C@@H](C)CC)C(C)C)C(C)C)[C@@H](C)CC)[C@@H](C)CC)C(C)C)C(C)C [Polypeptide P3-3] | most obviously improved | 5.0 | 160 nM | 2.1 | 370 nM | 7.5 | 100 nM | 7.2 | 110 nM | 1.8 | 430 nM | 2.4 | 320 nM |  |
| CC[C@H](C)[C@H](N)C(=O)N[C@@H](CO)C(=O)NCC(=O)N[C@H](C(=O)N[C@@H](CC(N)=O)C(=O)N[C@@H](C)C(=O)N[C@@H](CO)C(=O)N[C@H](C(=O)N[C@H](C(=O)N[C@@H](CC(N)=O)C(=O)N[C@H](C(=O)N[C@@H](CCCCN)C(=O)N[C@@H](CCC(=O)O)C(=O)N[C@@H](CCC(=O)O)C(=O)N[C@H](C(=O)N[C@@H](CC(=O)O)C(=O)N[C@@H](CCCNC(=N)N)C(=O)N[C@@H](CC(C)C)C(=O)N[C@@H](CC(N)=O)C(=O)N[C@@H](CCC(=O)O)C(=O)N[C@H](C(=O)N[C@@H](C)C(=O)N[C@@H](CCCCN)C(=O)N[C@@H](CC(N)=O)C(=O)N[C@@H](CC(C)C)C(=O)N[C@@H](CC(N)=O)C(=O)N[C@@H](CCC(=O)O)C(=O)N[C@@H](CO)C(=O)N[C@@H](CC(C)C)C(=O)N[C@H](C(=O)N[C@@H](CC(=O)O)C(=O)N[C@@H](CC(C)C)C(=O)N[C@@H](CCC(N)=O)C(=O)N[C@@H](CCC(=O)O)C(=O)N[C@@H](CC(C)C)C(=O)O)[C@@H](C)CC)C(C)C)[C@@H](C)CC)[C@@H](C)CC)C(C)C)C(C)C)[C@@H](C)CC [Polypeptide P3-4] | improved to varying degrees | 2.6 | 300 nM | 1.3 | 590 nM | 4.0 | 200 nM | 3.6 | 220 nM | 1.6 | 480 nM | 1.4 | 550 nM |  |
| CC[C@H](C)[C@H](N)C(=O)N[C@@H](CO)C(=O)NCC(=O)N[C@H](C(=O)N[C@@H](CC(N)=O)C(=O)N[C@@H](C)C(=O)N[C@@H](CO)C(=O)N[C@H](C(=O)N[C@H](C(=O)N[C@@H](CC(N)=O)C(=O)N[C@H](C(=O)N[C@@H](CCC(N)=O)C(=O)N[C@@H](CCCCN)C(=O)N[C@@H](CCC(=O)O)C(=O)N[C@H](C(=O)N[C@@H](CC(=O)O)C(=O)N[C@@H](CCCNC(=N)N)C(=O)N[C@@H](CC(C)C)C(=O)N[C@@H](CC(N)=O)C(=O)N[C@@H](CCC(=O)O)C(=O)N[C@H](C(=O)N[C@@H](C)C(=O)N[C@@H](CCCCN)C(=O)N[C@@H](CCC(=O)O)C(=O)N[C@@H](CC(C)C)C(=O)N[C@@H](CC(N)=O)C(=O)N[C@@H](CCC(=O)O)C(=O)N[C@@H](CO)C(=O)N[C@@H](CC(C)C)C(=O)N[C@H](C(=O)N[C@@H](CC(=O)O)C(=O)N[C@@H](CC(C)C)C(=O)N[C@@H](CCC(N)=O)C(=O)N[C@@H](CCC(=O)O)C(=O)N[C@@H](CC(C)C)C(=O)O)[C@@H](C)CC)C(C)C)[C@@H](C)CC)[C@@H](C)CC)C(C)C)C(C)C)[C@@H](C)CC [Polypeptide P3-5] | decreased slightly | 0.5 | 1470 nM | 0.5 | 1430 nM | 0.6 | 1240 nM | 1.3 | 630 nM | 0.7 | 1060 nM | 0.4 | 1820 nM | slightly higher than that of P3 |
